Tests used:
[1] = test system: Re-engineered ATP-binding aptamer, 4-nt poly-T linker (DNA, aptamer) ACCTGGGGGAGTATTTTTTGCGGAGGAAGGA; experiment: fluorescence melting (AF488/BHQ-1); details: 10 mM Mg2+; 100 mM Tris HCl, pH 6.5; 3 mM ATP, 50 nM aptamer; temperature of 50% ligand release, not a shift
[2] = test system: Re-engineered ATP-binding aptamer, 70-nt poly-T linker (DNA, aptamer) ACCTGGGGGAGTATTTTTTTTTTTTTTTTTTTTTTTTTTTTTTTTTTTTTTTTTTTTTTTTTTTTTTTTTTTTTTTTTTTTTTTTGCGGAGGAAGGA; experiment: fluorescence melting (AF488/BHQ-1); details: 10 mM Mg2+; 100 mM Tris HCl, pH 6.5; 3 mM ATP, 50 nM aptamer; temperature of 50% ligand release, not a shift

T50% [1]: 59.0 ± 0.5 °C
T50% [2]: 43.2 ± 0.5 °C
Structure (SMILES): Nc1ncnc2c1ncn2[C@@H]1O[C@H](COP(=O)(O)OP(=O)(O)OP(=O)(O)O)[C@@H](O)[C@H]1O
